Consider one compound from patent US20110046235A1, “PRODUCTS COMPRISING, AND USES OF, DECARBOXYLATED PHENOLIC ACIDS DERIVED FROM CHLOROGENIC ACIDS OF COFFEE” (NESTEC S.A., priority 2008, published 2011).

For one assay, the system named is Nrf2. Put plainly: Antioxidant Responsive Element (ARE) luciferase assay. As to conditions: 24 h, AREc 32 (MCF7) cells. It is filed as cell-based, human. From the text:
The pGL-8×ARE which contains eight copies of the ARE present in rat glutathione-S-transferase A2 (GSTA2) along with the pcDNA3.1 plasmid containing the neomycin selectable marker was stably transfected into human MCF7 cells (Wang et al., Cancer Res. 66, 10983-10994, 2006). ARE (antioxidant-responsive element) is the binding site of the transcription factor Nrf2 which regulates the genes involved in detoxification and endogenous defence against oxidative stress. The plasmid pGL-8×ARE contains a luciferase gene downstream of the eight Nrf2 binding sites that allows monitoring Nrf2 activity. The AREc 32 cells were seeded in 96-well microtiter plates in DMEM growth medium. After treatment with 4-vinylcatechol for 24 h firefly luciferase activity was determined.

Assay [1] concerns PGE2 production in HT-29 cells. Description: Prostaglandin E2 formation assay. In kind it is cell-based, human. As to conditions: 15 h then 6 h with TNF-α 10 ng/ml. On the procedure:
Human colon HT-29 cells were treated with 4-vinylcatechol for 15 h followed by a co-incubation of 6 h together with a pro-inflammatory agent TNF-α (10 ng/ml). Analysis of the PGE2 production in HT-29 cells was determined using a competitive enzyme immunoassay (EIA) (Cavin et al., BBRC 327, 742-49, 2005).

In the case of `C=Cc1ccc(O)c(O)c1` [4-vinylcatechol], the “firefly luciferase activity (induction of Nrf2 activity)” value amounted to 16 AU in the assay with Nrf2 (4-vinylcatechol 200 μg/ml), 41 AU in the assay with Nrf2 (4-vinylcatechol 400 μg/ml) and 22 AU in the assay on Nrf2 (4-vinylcatechol 600 μg/ml). Further, the PGE2 formation is on record as 58 % of control in assay [1] (4-vinylcatechol 3.13 μg/ml); 46 % of control in assay [1] (4-vinylcatechol 6.25 μg/ml); 21 % of control in assay [1] (4-vinylcatechol 9.38 μg/ml); 12 % of control in assay [1] (4-vinylcatechol 15.63 μg/ml); 5 % of control in assay [1] (4-vinylcatechol 31.25 μg/ml); 2 % of control in assay [1] (4-vinylcatechol 62.5 μg/ml).
